Publication PMC12524297 (International Journal of Molecular Sciences, 2025)
Like-named read-outs stand apart in the source and are kept apart here.

Key:
[1] = system: Caenorhabditis elegans (C. elegans, N2 strain)
[2] = In vitro assays confirming flagged compound (no details given)
Excerpt: 5.Implementation and Reproducibility
5.1 Real-World Deployment in Chemical Safety Assessment
HazChemNet has been integrated into a cloud-based decision support system for chemical safety evaluation, enabling real-time toxicity prediction for industrial and regulatory use. Key applications include:
Industrial Chemical Screening:
A pharmaceutical company utilized HazChemNet to prioritize 1,200 candidate compounds for drug development. The model identified 18% as high-risk (toxic), reducing experimental testing costs by 35%.
Environmental Regulation Compliance:
A regulatory agency deployed the model to screen 5,000 industrial chemicals under the EU REACH framework.
HazChemNet achieved 89% concordance with expert evaluations, accelerating risk assessment workflows.
5.2 Case Study: Identification of Emerging Contaminants
We applied HazChemNet to predict the toxicity of per- and polyfluoroalkyl substances (PFAS), a class of persistent environmental pollutants. The model identified 22 out of 30 PFAS compounds as hazardous, including:
PFOS (Perfluorooctanesulfonic acid): Predicted probability = 0.93 (high risk).
GenX (Hexafluoropropylene oxide dimer acid): Predicted probability = 0.87 (moderate risk).
Validation: Experimental LC50 data from zebrafish assays confirmed the predictions with a Spearman correlation of ρ […]
5.3 Integration with Laboratory Information Systems […]

O=C(O)CC(O)(CC(=O)O)C(=O)O [Citric Acid]
mortality ([1]; in vivo): no significant mortality

CC(=O)[O-].CC(=O)[O-].[Pb+2] [Lead Acetate]
LD50 ([1]; L4-stage worms, 24 h at 20 °C, K-M buffer, Probit analysis): 0.464 to 1 mg/mL

Gibberellin
mortality ([1]; in vivo): no significant mortality

Ethyl Alcohol
LD50 ([1]; in vivo): 46.4 to 100 mg/mL

OCC(O)CO [Glycerol]
mortality ([1]; in vivo): no significant mortality

O=C1C=CC(=O)C(Cl)=C1 [CID_123456]
confirmation of hazard flag by in vitro assays [2]: confirmed by in vitro assays
